# Biological target: ATX (human His-tagged) (Homo sapiens (Human), UniProt Q13822)
# Test: Human ATX enzyme inhibition assay (fluorescence quenching, MR121 substrate)
# Type: biochemical
# Details: 30 nM ATX, 1 μM MR121 substrate, 30° C.
# Description: Human ATX Enzyme Inhibition Assay
# Assay working solutions were made as follows:
row,IC50,Compound
1,100 nM,"O=C(OCc1ccc(C(F)(F)F)cc1F)N1CCC2(CC1)CN(C(=O)[C@H]1CCc3[nH]nnc3C1)C2 [Example 16A, (S)-[2-Fluoro-4-(trifluoromethyl)phenyl]methyl 2-[4,5,6,7-tetrahydro-1H-benzotriazole-5-carbonyl]-2,7-diazaspiro[3.5]nonane-7-carboxylate]"
2,13 nM,"O=C(OCc1ccc(OC(F)(F)F)c(F)c1)N1CC2(CCN(C(=O)C3CCc4[nH]nnc4C3)CC2)C1 (stereo not shown) [Example 12.33, 3-fluoro-4-(trifluoromethoxy)benzyl 7-(4,5,6,7-tetrahydro-1H-benzo[d][1,2,3]triazole-5-carbonyl)-2,7-diazaspiro[3.5]nonane-2-carboxylate]"
3,9 nM,"O=C(OCc1ccc(C(F)(F)F)cc1F)N1CCC2(CC1)CN(C(=O)[C@@H]1CCc3[nH]nnc3C1)C2 [Example 16B, (R)-[2-fluoro-4-(trifluoromethyl)phenyl]methyl 2-[4,5,6,7-tetrahydro-1H-benzotriazole-5-carbonyl]-2,7-diazaspiro[3.5]nonane-7-carboxylate]"
4,44 nM,"O=C(NCc1cnn[nH]1)C1CC2(CCN(C(=O)OCc3cc(Cl)cc(Cl)c3)CC2)C1 [Example 12.32, 2-[(3H-[1,2,3]triazol-4-ylmethyl)-carbamoyl]-7-aza-spiro[3.5]nonane-7-carboxylic acid 3,5-dichloro-benzyl ester]"
5,1 nM,"O=C(OCc1ccc(OC(F)(F)F)cc1)N1CCC2(CC1)CN(C(=O)C1CCc3[nH]nnc3C1)C2 (stereo not shown) [Example 12.43, 4-(trifluoromethoxy)benzyl 2-(4,5,6,7-tetrahydro-1H-benzo[d][1,2,3]triazole-5-carbonyl)-2,7-diazaspiro[3.5]nonane-7-carboxylate]"

# Further lines, the molecule ahead of its results:
row,Compound,IC50
1,"O=C(OCc1ccc(Cl)c(F)c1)N1CCC2(CC1)CN(C(=O)c1ccc3[nH]nnc3c1)C2 [Example 12, 4-Chloro-3-fluorobenzyl 2-(1H-benzo[d][1,2,3]triazole-5-carbonyl)-2,7-diazaspiro[3.5]nonane-7-carboxylate]",130 nM
2,"O=C(NC1CC2(C1)CN(C(=O)c1ccc3[nH]nnc3c1)C2)OCc1ccccc1 [Example 1.10, [2-(1H-benzotriazole-5-carbonyl)-2-aza-spiro[3.3]hept-6-yl]-carbamic acid benzyl ester]",3700 nM
3,"O=C(OCc1ccc(Cl)cc1)N1CCC2(CC1)CN(C(=O)c1ccc3[nH]nnc3c1)C2 [Example 1.02, 4-chlorobenzyl 2-(1H-benzo[d][1,2,3]triazole-5-carbonyl)-2,7-diazaspiro[3.5]nonane-7-carboxylate]",129 nM
4,"CS(=O)(=O)c1cc(Cl)cc(COC(=O)N2CCC3(CC2)CN(C(=O)c2ccc(S(N)(=O)=O)cc2)C3)c1 [Example 1.17, 3-chloro-5-(methylsulfonyl)benzyl 2-(4-sulfamoylbenzoyl)-2,7-diazaspiro[3.5]nonane-7-carboxylate]",729 nM
5,"O=C(OCc1cc(Cl)cc(Cl)c1)N1CCC2(CCN(C(=O)c3ccc4[nH]nnc4c3)CC2)C1 [Example 1.19, 3,5-dichlorobenzyl 8-(1H-benzo[d][1,2,3]triazole-5-carbonyl)-2,8-diazaspiro[4.5]decane-2-carboxylate]",39.5 nM
6,"O=C(c1ccc2[nH]nnc2c1)N1CC2(CCN(c3nnc(-c4ccc(Cl)cc4)o3)CC2)C1 [Example 7.1, (1H-benzo[d][1,2,3]triazol-5-yl)(7-(5-(4-chlorophenyl)-1,3,4-oxadiazol-2-yl)-2,7-diazaspiro[3.5]nonan-2-yl)methanone]",260 nM
7,"O=C(NC1CC2(C1)CN(C(=O)OCc1cc(Cl)cc(Cl)c1)C2)c1ccc2[nH]c(=O)oc2c1 [Example 5.2, 6-[(2-oxo-2,3-dihydro-benzooxazole-6-carbonyl)-amino]-2-aza-spiro[3.3]heptane-2-carboxylic acid 3,5-dichloro-benzyl ester]",26.5 nM
8,"O=C(OCc1ccccc1)N1CCC2(CC1)CC(Nc1ccc3[nH]c(=O)oc3c1)C2 [Example 11, Benzyl 2-(2-oxo-2,3-dihydrobenzo[d]oxazol-6-ylamino)-7-azaspiro[3.5]nonane-7-carboxylate]",1290 nM
